pIC50: −log10 of the molar value.
Assays:
T cells = assay: Detection of cell death: 7-AAD staining of anti-CD3 stimulated lymphocytes, FACScan; format: cell-based, human; conditions: anti-CD3, 3 days; 1501 µM kynurenine, 349µM 3-hydroxykynurenine, 510µM 3-hydroxyanthranilic acid, mixture 64 µM of each compound
Procedure: Lymphocytes were stimulated in culture with anti-CD3 monoclonal antibody (s. above) in the presence or absence (control) of kynurenine (1501µM), 3-hydroxyanthranilic acid (510µM), 3-hydroxykynurenine (348µM), or metabolite mixture (64µM kynurenine + 64µM 3-hydroxykynurenine + 64µM anthranilic acid + 64µM 3-hydroxyanthranilic acid + […] quinolinic acid). After 3 days the cells were washed and resuspended in PBS (10^6/ml). Thereafter, the cells (100µ1 suspension) were labeled with anti-CD3-FITC antibody (3 µl), stained with 7-AAD (5µl) for 15 min, and the percentage of 7-AAD-positive (dead) T cells was determined in a FACScan. In an other experiment T cells, B cells, NK-cells, or DCs were separated from PBMCs by magnetic beads or generated as described, and cultured (5x10^5 cells/ml) with a mixture of kynurenine metabolites (kynurenine + 3-hydroxykynurenine + anthranilic acid + 3-hydroxyanthranilic acid + quinolinic acid)(8, 16, or 32µM respectively for each compound). In one setting T cells were activated with anti-CD3 antibody. Cell death was measured daily for 5 days by 7-AAD staining and expressed in percentage of dead cells.

[1] = system: T cells stimulated by allogeneic DCs; assay: Allogeneic T-cell response: lymphocyte proliferation induced by allogeneic dendritic cells, 3[H]-thymidin incorporation; format: cell-based, human; conditions: 6 days
From the text: DCs were generated from CD14-positive blood monocytes as previously described ("Schuler G. and N. Romani", 1997, Adv. Exp. Med. Biol. 417:7-13). Briefly, peripheral blood mononuclear cells of an HLA-typed healthy donor were separated by density gradient centrifugation and CD14-positive monocytes were isolated by adherence to culture dishes. Non-adherent cells were discarded. After culture of monocytes in the presence of human rGM-CSF (666 Units/ml) and rIL-4 (1000 Units/ml) for 7 days, rTNF-α (10 ng/ml) was added for an additional 2 days to induce maturation of DC. Characterization of DC phenotype was performed by flow cytometry using the following mouse monoclonal antibodies: anti-CD 14-FITC, anti-HLA-DR-FITC, anti-CD 1a-PE, anti-CD86-PE, and anti-CD83-PE (BD Biosciences Heidelberg, Germany). DCs were kept in liquid nitrogen until use.
• (a) Allogeneic T-cell response. DCs were infected with recombinant IDO-adeno-GFP (DC-IDO-GFP), IDO-adeno (DC-IDO) or with control adenoviruses (DC-adeno) at a MOI (multiplicity of infection) up to 500 for 2 days. […] After 5 days, ^3[H]-thymidin was added for 12hrs and the number of counts (counts per minute = cpm) determined in a (3-counter (Inotech Biosystems, Lansing, MI). In order to verify whether IDO expression or adenovirus infection harm the DCs, 10^5 cells were infected with IDO-adeno-GFP, IDO-adenovirus, or adenovirus only at a stepwise decreasing MOI (500, 250, 125, ........ 3.9) and cell viability was measured in FACS following double staining with 7-AAD and anti-CD83 antibody-PE. The percentage of dead cells never exceeded 30% for any MOI following IDO-adeno-GFP- or IDO-adeno-infection and 40% following adenovirus(control)-infection. […] After 2 days, cell proliferation was assessed by measuring ^3[H]-thymidin incorporation (cpm) as described. • (c) Tryptophan metabolite titration curves. […] After 2 days, ^3[H] thymidin was added and the number of counts recorded. […] After another 2 days, ^3[H] thymidin was added and cpm determined. […]

For `Nc1ccccc1C(=O)CC(N)C(=O)O` (stereo not drawn) [kynurenine], the “dead (7-AAD-positive) T cells (in words)” value (T cells) was “virtually all cells died”, the “inhibition of proliferation of T cells stimulated by allogeneic DCs (in words)” value [1] was “completely inhibit the proliferation of T cells” and the pIC50 ([1]; Homo sapiens, T-cell, 144 h, 3[H]-thymidin incorporation, read-out: 50% inhibition (I50) of proliferation of T cells stimulated by allogeneic DCs) was 3.80.

Reference: EP1369114A1, “Use of tryptophan metabolites as pharmaceutical agents” (Terness, Peter, Priv. Doz. Dr., priority 2002, dated 2003)
